The test system of data set [1] is Mus musculus. Put plainly: Anti-aplastic anemia activity in BALB/c mouse model of immune-mediated bone marrow failure assessed as increase in hemoglobin level at 10 mg/kg, po treated for 14 days. The data set is classed as functional, organism-based. As to conditions: time 14.0 day.
Data set [2] relates to Mus musculus. Briefly: Anti-aplastic anemia activity in C57BL/6J mouse model of immune-mediated bone marrow failure assessed as reduction in cytotoxic T lymphocytes hyperactivation at 5 to 15 mg/kg, IG qd treated for 12 days. It counts as functional, organism-based. As to conditions: dose 5-15 mg/kg, time 12.0 day.
In data set [3] the test system is CTLL-2. Put plainly: Induction of ferroptosis in mouse CTLL-2 cells assessed as increase in pERK level at 7.5 to 30 uM incubated for 16 hrs by Western blot analysis. It counts as functional, cell-based. Conditions: dose 7.5-30 µM.
Data set [4] deals with CTLL-2. Briefly: Induction of ferroptosis in mouse CTLL-2 cells assessed as increase in ROS level incubated for 16 hrs by DCFH-DA staining based flow cytometry. The data set is classed as functional, cell-based. Conditions: dose 7.5-30 µM. Background: A flow cytometer gives signals particle by particle.
Data set [5] has as its system Mus musculus. Briefly: Anti-aplastic anemia activity in BALB/c mouse model of immune-mediated bone marrow failure assessed as increase in body weight at 10 mg/kg, po treated for 14 days. The data set is classed as functional, organism-based. As to conditions: time 14.0 day.
Data set [6] has as its system CD8-positive T cell. Briefly: Inhibition of CD3/CD28-activated CD8-positive T cell proliferation in BALB/c mouse lymph nodes incubated for 72 hrs by CFSE staining based flow cytometry. It counts as functional, tissue-based. As to conditions: Lymph node, dose 1-10 µM.
For data set [7], the system named is Mus musculus. Briefly: Anti-aplastic anemia activity in C57BL/6J mouse model of immune-mediated bone marrow failure assessed as increase in hemoglobin level treated intragastrically once daily for 21 days. The data set is classed as functional, organism-based. Conditions: dose 5-15 mg/kg, route ig, time 21.0 day.
For data set [8], the system named is Mus musculus. Put plainly: Anti-aplastic anemia activity in C57BL/6J mouse model of immune-mediated bone marrow failure assessed as CD4+ T cells at 15 mg/kg, IG qd treated for 12 days by flow cytometry (reference value: 12.93 %). The data set is classed as functional. Conditions: time 12 day.
Data set [9] concerns Mus musculus. Put plainly: Anti-aplastic anemia activity in C57BL/6J mouse model of immune-mediated bone marrow failure assessed as CD8+ T cells at 15 mg/kg, IG qd treated for 12 days by flow cytometry (reference value: 72.15 %). It counts as functional. Conditions: time 12 day.
Data set [10] concerns Mus musculus. Briefly: Anti-aplastic anemia activity in C57BL/6J mouse model of immune-mediated bone marrow failure assessed as restoration of naive CD8+ T cells at 5 to 15 mg/kg, IG qd treated for 12 days by flow cytometry. It counts as functional, organism-based. As to conditions: dose 5-15 mg/kg, time 12.0 day.
Data set [11] relates to CTLL-2. Briefly: Induction of ferroptosis in mouse CTLL-2 cells assessed as increase in free Fe2+ level incubated for 16 hrs by FerroOrange staining based flow cytometry. The data set is classed as functional, cell-based. As to conditions: dose 7.5-30 µM.
The test system of data set [12] is Mus musculus. Put plainly: Anti-aplastic anemia activity in BALB/c mouse model of immune-mediated bone marrow failure assessed as increase in peripheral red blood cells at 10 mg/kg, po treated for 14 days. It counts as functional, organism-based. As to conditions: time 14.0 day.
The subject of data set [13] is CTLL-2. Put plainly: Induction of ferroptosis in mouse CTLL-2 cells assessed as increase in intracellular Ca2+ concentration incubated for 24 hrs by Fluo-4 AM dye based analysis. The data set is classed as functional, cell-based.
Data set [14] deals with Mus musculus. Briefly: Anti-aplastic anemia activity in C57BL/6J mouse model of immune-mediated bone marrow failure assessed as reduction in cytotoxic T lymphocytes accumulation at 5 to 15 mg/kg, IG qd treated for 12 days. It counts as functional, organism-based. Conditions: dose 5-15 mg/kg, time 12.0 day.
In data set [15] the test system is Mus musculus. Put plainly: Anti-aplastic anemia activity in C57BL/6J mouse model of immune-mediated bone marrow failure assessed as CD4+ T cells at 5 mg/kg, IG qd treated for 12 days by flow cytometry (reference value: 12.93 %). The data set is classed as functional. As to conditions: time 12 day.
The subject of data set [16] is Mus musculus. Briefly: Anti-aplastic anemia activity in C57BL/6J mouse model of immune-mediated bone marrow failure assessed as increase in dietary intake at 5 to 15 mg/kg, IG qd treated for 21 days. It counts as functional, organism-based. As to conditions: dose 5-15 mg/kg, time 21.0 day.
Data set [17] is described as follows: Drug metabolism in Sprague-Dawley rat plasma assessed as (4bR,9S)-1-(hydroxymethyl)-3,7-dimethoxy-11-methyl-6-oxo-6,8a,9,10-tetrahydro-5H-9,4b-(epiminoethano)phenanthren-4-yl cinnamate metabolite formation at 50 mg/kg, po measured for 24 hrs by HPLC analysis. It counts as ADME, organism-based. Conditions: in vivo.
The nature of data set [18]: Drug metabolism in mouse thymus assessed as cinnamic acid metabolite formation at 50 mg/kg, po measured for 0.083 to 8 hrs by HPLC analysis. The data set is classed as ADME, organism-based. Conditions: in vivo, time 0.083-8 hrs.
Data set [19] in a line: Drug metabolism in rat plasma assessed as double hydrolyzation-mediated metabolite formation at 50 mg/kg, po measured for 24 hrs by HRMS analysis. The data set is classed as ADME, organism-based. Conditions: in vivo.
The nature of data set [20]: Drug metabolism in mouse blood assessed as cinnamic acid metabolite formation at 50 mg/kg, po measured for 0.083 to 8 hrs by HPLC analysis. The data set is classed as ADME, organism-based. As to conditions: in vivo, time 0.083-8 hrs.
A short description of data set [21]: Stability in mouse kidney assessed as compound remaining at 50 mg/kg, po measured for 0.083 to 8 hrs by HPLC analysis. Conditions: in vivo, time 0.083-8 hrs. It counts as ADME, organism-based.
Data set [22] in a line: Drug metabolism in rat plasma assessed as hydrolyzation/hydroxylation-mediated metabolite formation at 50 mg/kg, po measured for 24 hrs by HRMS analysis. The data set is classed as ADME, organism-based. Conditions: in vivo.
Data set [23] can be described thus: Drug metabolism in mouse spleen assessed as (4bR,9S)-1-(hydroxymethyl)-3,7-dimethoxy-11-methyl-6-oxo-6,8a,9,10-tetrahydro-5H-9,4b-(epiminoethano)phenanthren-4-yl cinnamate metabolite formation at 50 mg/kg, po measured for 0.083 to 8 hrs by HPLC analysis. It counts as ADME, organism-based. Conditions: in vivo, time 0.083-8 hrs.
Data set [24] is described as follows: Drug metabolism in mouse lymph node assessed as cinnamic acid metabolite formation at 50 mg/kg, po measured for 0.083 to 8 hrs by HPLC analysis. It counts as ADME, organism-based. Conditions: in vivo, time 0.083-8 hrs.
The nature of data set [25]: Drug metabolism in mouse blood assessed as (4bR,9S)-1-(hydroxymethyl)-3,7-dimethoxy-11-methyl-6-oxo-6,8a,9,10-tetrahydro-5H-9,4b-(epiminoethano)phenanthren-4-yl cinnamate metabolite formation at 50 mg/kg, po measured for 0.083 to 8 hrs by HPLC analysis. It counts as ADME, organism-based. Conditions: in vivo, time 0.083-8 hrs.
Data set [26] can be described thus: Drug metabolism in mouse plasma assessed as cinnamic acid metabolite formation administered orally by HRMS analysis. Conditions: po. The data set is classed as ADME.
Data set [27] is described as follows: Stability in mouse bone marrow assessed as compound remaining at 50 mg/kg, po measured for 0.083 to 8 hrs by HPLC analysis. The data set is classed as ADME, organism-based. As to conditions: in vivo, time 0.083-8 hrs.
Data set [28] can be described thus: Stability in mouse plasma at 37 degreeC. The data set is classed as ADME, cell-free.
Data set [29] can be described thus: Drug metabolism in mouse thymus assessed as (4bR,9S)-1-(hydroxymethyl)-3,7-dimethoxy-11-methyl-6-oxo-6,8a,9,10-tetrahydro-5H-9,4b-(epiminoethano)phenanthren-4-yl cinnamate metabolite formation at 50 mg/kg, po measured for 0.083 to 8 hrs by HPLC analysis. It counts as ADME, organism-based. As to conditions: in vivo, time 0.083-8 hrs.
Data set [30] can be described thus: Drug metabolism in rat plasma assessed as double hydrolyzation/hydroxylation-mediated metabolite formation at 50 mg/kg, po measured for 24 hrs by HRMS analysis. The data set is classed as ADME, organism-based. Conditions: in vivo.
Data set [31] in a line: Drug metabolism in Sprague-Dawley rat plasma assessed as cinnamic acid metabolite formation at 50 mg/kg, po measured for 24 hrs by HPLC analysis. It counts as ADME, organism-based. As to conditions: in vivo.
Data set [32] can be described thus: Drug metabolism in mouse spleen assessed as cinnamic acid metabolite formation at 50 mg/kg, po measured for 0.083 to 8 hrs by HPLC analysis. The data set is classed as ADME, organism-based. As to conditions: in vivo, time 0.083-8 hrs.
Data set [33] is described as follows: Drug metabolism in rat plasma assessed as (4bR,9S)-1-(hydroxymethyl)-3,7-dimethoxy-11-methyl-6-oxo-6,8a,9,10-tetrahydro-5H-9,4b-(epiminoethano)phenanthren-4-yl cinnamate metabolite formation at 50 mg/kg, po measured for 24 hrs by HRMS analysis. The data set is classed as ADME, organism-based. Conditions: in vivo.

Molecules are shown by their SMILES. Activity calls are given as the source filed them. No cut-off for these calls is given here.

Consider `COC1=C[C@@H]2[C@@H]3Cc4c(CO)cc(OC)c(OC(=O)/C=C/c5ccccc5)c4[C@]2(CCN3C)CC1=O`, for which the result in data set [1], in data set [2], in [3], in data set [5], in data set [12] and in data set [13] was Active. Besides, the result in data set [14] and in data set [16] was Active. For the same compound, the Activity result is “Dose-dependent-effect” in [4]; “Dose-dependent-effect” in data set [7]; 37.87% in data set [8]; 35.23% in [9]; “Active; Partial Restoration Of Naive Cd8+ T Cells Was Observed” in [10]; “Dose-dependent-effect” in data set [11]. In data set [15], the Activity is given as 11.38%. Moreover, the inhibition entry in data set [6] is “Dose-dependent-effect”.
Take `COC1=C[C@@H]2[C@@H]3Cc4c(COC(=O)/C=C/c5ccccc5)cc(OC)c(OC(=O)/C=C/c5ccccc5)c4[C@]2(CCN3C)CC1=O`: the Drug metabolism result in [17], in data set [18], in data set [19], in [20], in data set [22] and in [23] was “metabolite_detected” each time. The Drug metabolism entry in data set [24], in [25], in [26], in data set [29], in data set [30] and in data set [31] was “metabolite_detected” in each case. For the same compound, the Drug metabolism result in [32] and in [33] was “metabolite_detected” throughout. Further, the Stability entry in [21], in [27] and in [28] was “Unstable” throughout.

These data come from ChEMBL document CHEMBL6177973, “A Novel Compound 3a-M1, from Metabolites of Sinomenine Derivative 3a, Exerts Potent Anti-Aplastic Anemia Activity via IP3R/ORAI-Mediated CTL Ferroptosis” (J Med Chem, 2025).
